Values quoted from earlier work, collected in PubChem BioAssay AID1259409 (Chemical Carcinogenesis Research Information System (CCRIS), 2018).

Tested on: rodent chemically induced tumor inhibition, incidence and multiplicity
Assay: CCRIS tumor inhibitor studies
Conditions: Promoter: NONE USED; for outcome: Dose [Inhibitor]: 3 MG/KG BW IN 0.1 ML CORN OIL 3/WK FOR DURATION OF EXPERIMENT BEGINNING 15 D POST CARCINOGEN DOSE, Target Tissue: Type of Lesion: MAMMARY GLAND: ADENOCARCINOMA, FIBROADENOMA, Dose [Carcinogen]: 5 OR 10 MG IN 0.5 ML CORN OIL ONCE

CC(C)C[C@H]1C(=O)N2CCC[C@H]2[C@]2(O)O[C@](NC(=O)[C@@H]3C=C4c5cccc6[nH]c(Br)c(c56)C[C@H]4N(C)C3)(C(C)C)C(=O)N12
tumour outcome (control, treated, inhibition, significance) (Carcinogen: DIMETHYLBENZ[A]ANTHRACENE, 57-97-6, Dose [Inhibitor]: 3 MG/KG BW (0.1 ML) IN CORN OIL 5/WK OR 6/WK FOR 2 WK (11 INJECTIONS) BEGINNING 15 D PRIOR TO CARCINOGEN DOSE AT 35 D OF, Route [Inhibitor]: SUBCUTANEOUS, Species: RAT, Strain/Sex: SPRAGUE-DAWLEY/FEMALE, Target Tissue: Type of Lesion: MAMMARY GLAND: TUMOR, Dose [Carcinogen]: 5 MG/RAT IN CORN OIL ONCE): 13/22 (59%), 11/24 (46%), 22%, not significant
outcome (Carcinogen: DIMETHYLBENZ[A]ANTHRACENE, 57-97-6, MAINTAINED ON 0.5% FA, Route [Inhibitor]: SUBCUTANEOUS, Species: RAT, Strain/Sex: SPRAGUE-DAWLEY/FEMALE): 34%, 0%, 100%, not calculated (low dose carcinogen); 38%, 18%, 53%, not calculat
outcome (Carcinogen: DIMETHYLBENZ[A]ANTHRACENE, 57-97-6, MAINTAINED ON 20% FAT, Route [Inhibitor]: SUBCUTANEOUS, Species: RAT, Strain/Sex: SPRAGUE-DAWLEY/FEMALE): 56%, 0%, 100%, not calculated (low dose carcinogen); 58%, 19%, 67%, not calculat
tumour outcome (control, treated, inhibition, significance) (Carcinogen: DIMETHYLBENZ[A]ANTHRACENE, 57-97-6, Dose [Inhibitor]: 400 UG/100 G BW TOGETHER WITH 25 UG TAMOXIFEN/100 G BW 1/D FOR 20 WK BEGINNING 3 D POST CARCINOGEN DOSE (STUDY DURATION:, Route [Inhibitor]: SUBCUTANEOUS, Species: RAT, Strain/Sex: SPRAGUE-DAWLEY/FEMALE, Target Tissue: Type of Lesion: MAMMARY GLAND: CARCINOMA, Dose [Carcinogen]: 5 MG ONCE AT 53 D OF AGE): 85%, 21%, 75%, p<0.001 at 20 wk
tumour outcome (control, treated, inhibition, significance) (Carcinogen: DIMETHYLBENZ[A]ANTHRACENE, 57-97-6, Dose [Inhibitor]: 400 UG/100 G BW TOGETHER WITH 25 UG TAMOXIFEN/100 G BW 1/D FOR 20 WK BEGINNING 3 D POST CARCINOGEN DOSE (STUDY DURATION:, Route [Inhibitor]: SUBCUTANEOUS, Species: RAT, Strain/Sex: SPRAGUE-DAWLEY/FEMALE, Target Tissue: Type of Lesion: MAMMARY GLAND: CARCINOMA, Dose [Carcinogen]: 10 MG ONCE AT 53 D OF AGE): 90%, 10%, 89%, p<0.001 at 12 wks
tumour outcome (control, treated, inhibition, significance) (Carcinogen: DIMETHYLBENZ[A]ANTHRACENE, 57-97-6, Dose [Inhibitor]: 400 UG/100 G BW TOGETHER WITH 25 UG TAMOXIFEN/100 G BW 1/D FOR 26 WK BEGINNING 3 D POST CARCINOGEN DOSE (STUDY DURATION:, Route [Inhibitor]: SUBCUTANEOUS, Species: RAT, Strain/Sex: SPRAGUE-DAWLEY/FEMALE, Target Tissue: Type of Lesion: MAMMARY GLAND: CARCINOMA, Dose [Carcinogen]: 20 MG ONCE AT 53 D OF AGE): 100%, 12%, 88%, p<0.001 at 11 wks
tumour outcome (control, treated, inhibition, significance) (Carcinogen: DIMETHYLBENZ[A]ANTHRACENE, 57-97-6, Dose [Inhibitor]: 400 UG/100 G BW TOGETHER WITH 25 UG TAMOXIFEN/100 G BW 1/D PLUS 68 MG RETINYL ACETATE/KG OF DIET, BEGINNING 3 D POST CAR, Route [Inhibitor]: SUBCUTANEOUS, Species: RAT, Strain/Sex: SPRAGUE-DAWLEY/FEMALE, Target Tissue: Type of Lesion: MAMMARY GLAND: CARCINOMA, Dose [Carcinogen]: 20 MG ONCE AT 53 D OF AGE): 100%, 3%, 97%, p<0.001 at 11 wk
tumour outcome (control, treated, inhibition, significance) (Carcinogen: DIMETHYLBENZ[A]ANTHRACENE, 57-97-6, Dose [Inhibitor]: 400 UG/100 G BW TOGETHER WITH 25 UG TAMOXIFEN/100 G BW 1/D PLUS 204 MG RETINYL ACETATE/KG OF DIET, BEGINNING 3 D POST CA, Route [Inhibitor]: SUBCUTANEOUS, Species: RAT, Strain/Sex: SPRAGUE-DAWLEY/FEMALE, Target Tissue: Type of Lesion: MAMMARY GLAND: CARCINOMA, Dose [Carcinogen]: 10 MG ONCE AT 53 D OF AGE): 90%, 5%, 94%, p<0.001 at 12 wk
tumour outcome (control, treated, inhibition, significance) (Carcinogen: DIMETHYLBENZ[A]ANTHRACENE, 57-97-6, Dose [Inhibitor]: 400 UG/100 G BW TOGETHER WITH 25 UG TAMOXIFEN/100 G BW 1/D PLUS 328 MG RETINYL ACETATE/KG DIET BEGINNING 3 D POST CARCIN, Route [Inhibitor]: SUBCUTANEOUS, Species: RAT, Strain/Sex: SPRAGUE-DAWLEY/FEMALE, Target Tissue: Type of Lesion: MAMMARY GLAND: CARCINOMA, Dose [Carcinogen]: 5 MG ONCE AT 53 D OF AGE): 85%, 5%, 94%, p<0.001 at 20 wk
tumour outcome (control, treated, inhibition, significance) (Carcinogen: ENOVID (NORETHYNODREL WITH MESTRANOL), 8015-30-3, Dose [Inhibitor]: 0.1 MG 1/D FOR 21 MO BEGINNING CONCURRENTLY WITH CARCINOGEN DOSE (STUDY DURATION: 21 MO), Route [Inhibitor]: SUBCUTANEOUS, Species: MOUSE, Strain/Sex: C3H/FEMALE, Target Tissue: Type of Lesion: MAMMARY GLAND: CARCINOMA, Dose [Carcinogen]: 0.1 MG 2/WK FOR 21 MO): 30/100 (30%), 10/100 (10%), 67%, p<0.001
tumour outcome (control, treated, inhibition, significance) (Carcinogen: ESTRONE, 53-16-7, PROGESTERONE, 57-83-0, Carcinogen: ESTRONE, 53-16-7, PROGESTERONE, 57-83-0, Dose [Inhibitor]: 100 UG 1/D FOR 13 WK BEGINNING CONCURRENTLY WITH CARCINOGEN DOSE (STUDY DURATION: NOT STATED, DATA INDICATES 13 WK), Route [Inhibitor]: SUBCUTANEOUS, Species: MOUSE, Strain/Sex: STRAIN-GR/FEMALE, Target Tissue: Type of Lesion: MAMMARY GLAND: PAPILLARY CARCINOMA, Dose [Carcinogen]: 0.5 MG/L FOR 13 WK IN DRINKING WATER BEGINNING AT 15 WK OF AGE, THEN 30 MG PELLET IMPLANT 1/MO BEGINNING AT 15 WK OF AGE): 58/119 (49%), 34/119 (29%), 41%, p<0.005
tumour outcome (control, treated, inhibition, significance) (Carcinogen: ISONIAZID, 54-85-3, Dose [Inhibitor]: 5000 PPM IN DIET STARTING 1 WK PRIOR TO ADMINISTRATION OF CARCINOGEN UNTIL END OF EXPERIMENT (STUDY DURATION: APPROXIMAT, Route [Inhibitor]: ORAL, Species: MOUSE, Strain/Sex: SWISS/MALE, FEMALE, Target Tissue: Type of Lesion: LIVER AND LUNG: COMBINED TUMORS, Dose [Carcinogen]: 1.1 MG/D 5 D/WK UNTIL 25 MO OF AGE): 16/29 (55%), 4/20 (20%), 64%, p<o.o5
tumour outcome (control, treated, inhibition, significance) (Carcinogen: N-METHYL-N'-NITRO-N-NITROSOGUANIDINE, 70-25-7, Dose [Inhibitor]: 0, 0.25 MG/KG AS A SUSPENSION IN OLIVE OIL 1/2 D BEGINNING POST CARCINOGEN DOSE AND CONTINUING FOR DURATION OF STUDY (ST, Route [Inhibitor]: SUBCUTANEOUS, Species: RAT, Strain/Sex: WISTAR/MALE, Target Tissue: Type of Lesion: STOMACH: ADENOCARCINOMA, Dose [Carcinogen]: 50 UG/ML IN DRINKING WATER FOR 25 WK): 12/19 (63%), 12/20 (60%), 5%, not calculated
tumour outcome (control, treated, inhibition, significance) (Carcinogen: N-METHYL-N'-NITRO-N-NITROSOGUANIDINE, 70-25-7, Dose [Inhibitor]: 0, 0.5 MG/KG AS A SUSPENSION IN OLIVE OIL 1/2 D BEGINNING POST CARCINOGEN DOSE AND CONTINUING FOR DURATION OF STUDY (STU, Route [Inhibitor]: SUBCUTANEOUS, Species: RAT, Strain/Sex: WISTAR/MALE, Target Tissue: Type of Lesion: STOMACH: ADENOCARCINOMA, Dose [Carcinogen]: 50 UG/ML IN DRINKING WATER FOR 25 WK): 12/19 (63%), 10/20 (50%), 21%, not calculated
